Experimental findings from patent US7507739B2, “6-[(substituted)phenyl]triazolopyrimidines as anticancer agents” (Wyeth, priority 2003, dated 2009) are described below.

One test has as its system COLO 205 cells. In words: MTS cytotoxicity test with COLO 205 cells. The test is classed as cell-based, human. To be noted: 3 days. The procedure: The assay, which is sold in kit form by Promega (Madison, Wis.; CellTiter 96 AQueous Non-Radioactive Cell Proliferation Assay), is based on the conversion by viable cells, but not by dead cells, of the tetrazolium salt, MTS (3-(4,5-dimethylthiazol-2-yl)-5-(3-carboxymethoxyphenyl)-2-(4-sulphophenyl)-2H-tetrazolium, inner salt), into a water-soluble colored formazan which is detected by spectrophotometry. Compounds are tested at nine concentrations, in order to determine IC50 values. For the test procedure, cells are harvested by trypsinization (or, in the case of non-adherent cells, by simple resuspension), washed, counted and distributed to wells of 96-well flat-bottom microtiter plates at 1000 cells per well in 200 μL of medium. In addition, one row of wells on a separate plate received cells as above (“time 0” plate). All plates are incubated at 37° in humidified 5% CO2 in air for about 24 hr.
On day 2, compounds for test are diluted and added to wells. Compounds are dissolved in DMSO at 10 mg/mL. For each compound, nine serial 2-fold dilutions are prepared in DMSO. Ten μL of each dilution in DMSO is transferred to 100 μL of medium, mixed well, and then 5 μL of this dilution is transferred in quadruplicate to wells containing cells. The final high concentration of each compound is typically 5 μM. Plates are returned to the incubator for three days. At the time of drug addition to the experimental plates, the MTS assay is run on the “time 0” plate. This produced the “time 0 MTS value” which is related to the number of viable cells per well at the time of drug addition.
After three days of culture with test compounds (day 5 overall), the MTS assay is done on all wells of the experimental plates. The absorbance values of the quadruplicate sample wells are averaged and divided by the average of the “time 0” values. The average of control wells without drug, divided by the average “time 0” value, gave the maximal relative increase in MTS color yield due to cell growth during the final three days of culture. The average of control wells with high drug concentration, divided by the “time 0” value, gave the minimal relative color yield for cells that are completely killed. The nine values for each compound are plotted against concentration, and the concentration that produced a relative color yield half way between the maximum and minimum is taken as the IC50 value.
COLO 205 is a human colon carcinoma cell line that is used for comparative testing of the examples of this invention and several reference compounds. This line is sensitive to paclitaxel and vincristine.

Test [1] relates to DLD1 Human Colon Carcinoma. The test can be described thus: Human tumor xenograft test, DLD1. Type of test: in vivo. The settings on record: DLD1, 15 mg/kg intravenously on days 1, 5, 9, and 13. The procedure:
(§1) The ability of compounds of this invention to inhibit tumor growth in animals is studied in the athymic mouse xenograft standard pharmacological test. Female nu/nu mice in an outbred albino background are obtained from Charles River Laboratories (Wilmington, Mass.). Animals are injected subcutaneously on the flank with the desired tumor cell suspension. Several days later, mice with tumors of approximately 150 mm^3 are selected from those injected (staged) and randomly distributed into groups of 5-10. The day of staging is called day 0. Compounds of the invention, usually formulated in saline (exceptions are noted in tables), are administered to animals by intravenous injection or oral gavage on various schedules starting on day 0 or 1, as noted in the tables. The control group in each experiment is dosed with vehicle on the same schedule. Tumor size is measured every 3-7 days with calipers in two orthogonal dimensions, and tumor volume is calculated from the formula volume=[(length×width^2)/2].
(§2) Tumor/Control (T/C) is obtained by dividing the mean tumor volume of the treated group by the mean tumor volume of the control group on each measurement day. A treatment dose is defined as active if it produced a statistically significant T/C of 0.50 or less. A p value≦0.05, determined by one-side Student's t-test, is required for statistical significance. A treatment dose is defined as toxic if more than 10% of the animals died from a compound-related toxicity.
In general terms: A xenograft is tissue or cells of one species grown in another, often human tumour cells in immunodeficient mice.

The test system of the next test is MAP-rich tubulin. The test can be described thus: Tubulin polymerization test with MAP-rich tubulin. Type of test: biochemical, bovine. To be noted: 0.3 μM compound, 20 min, fold enhancement over control. On the procedure: Medium is RPMI-1640 with L-glutamine, supplemented with 10% heat-inactivated fetal calf serum, 100 units/ml penicillin, and 100 μg/ml streptomycin (Gibco, Grand Island, N.Y.). Microtubule-associated protein (MAP)-rich tubulin, containing about 70% tubulin and 30% MAPs (#ML113), and highly purified tubulin (>99% pure, #TL238), both from bovine brain, are obtained from Cytoskeleton, Inc., Denver, Colo. PEM buffer (80 mM piperazine-N,N′-bis[2-ethanesulfonic acid], pH 6.9, 1 mM ethylene glycol-bis(β-aminoethyl ether)-N,N,N′,N′-tetraacetic acid, 1 mM magnesium chloride) and guanosine 5′-triphosphate (GTP) are also obtained from Cytoskeleton. [3H]paclitaxel, specific activity 14.7 Ci/mmol, is purchased from Moravek Biochemicals (Brea, Calif.). [^3H]vinblastine, specific activity 9.60 Ci/mmol and MicroSpin G-50 columns are obtained from Amersham Biosciences (Piscataway, N.J.). […] Other reagents are obtained from Sigma (St. Louis, Mo.).
Two variations of this procedure are done, one using MAP-rich tubulin and one using pure tubulin.
MAP-rich tubulin is dissolved in ice-cold PEM buffer containing 1 mM GTP (GPEM buffer) at a concentration of 1.3 mg/mL. The solution is centrifuged at top speed in an Eppendorf model 5415C microcentrifuge (Brinkmann Instruments, Westbury, N.Y.) for 10 min at […] immediately before use. The tubulin solution is added to wells of a ½-area 96-well plate (Costar No. 3696, Corning, Inc., Corning, N.Y.) already containing the compounds of interest. Each compound is tested in duplicate at a final concentration of 0.3 μM in a volume of 110 μL per well. The final DMSO concentration in all wells is 0.3%. Control reactions, which received compound solvent only, are done in quadruplicate. The plate is put in a SpectraMax Plus plate reader (Molecular Devices Corp. Sunnyvale, Calif.) thermostated at 24° and the absorbance of each well at 340 nm, a measure of the appearance of turbidity due to tubulin polymer formation, is determined every minute for 60 minutes. The absorbance at time 0 for each well is subtracted from each of the subsequent absorbance readings for that well, and then the duplicates are averaged.
In this assay, control reactions with MAP-rich tubulin show an S-shaped absorbance profile characterized by three phases: first, a lag phase during which no change in absorbance occurs; second, a polymerization phase in which absorbance increases; and third, a plateau phase in which absorbance has reached a maximum and little or no further change occurs. Polymerization enhancers such as paclitaxel and docetaxel shorten or eliminate the lag phase, increase the rate of the polymerization phase, and often increase the height of the plateau. […] The compounds of this invention have a taxane-like effect on the polymerization reaction. This has been expressed quantitatively in Table 5 by dividing the mean A340 of each sample at 20 min by the mean A340 of the control at 20 min to give a fold enhancement over control. […] Examples of this invention have factors ranging up to 8.1, with the majority in the 5 to 6-fold range.

The test system of test [2] is A549 Human Non-Small Cell Lung Carcinoma. The test can be described thus: Human tumor xenograft test, A549. The test is classed as in vivo, athymic mice. The settings on record: A549, intravenously q4dX8 at 40 mg/kg. On the procedure:
as §1, §2

Regarding `C[C@H](Nc1c(-c2c(F)cc(OCCCN(C)C)cc2F)c(Cl)nc2ncnn12)C(F)(F)F` [Example 1, 5-Chloro-6-{4-[3-(dimethylamino)propoxy]-2,6-difluorophenyl}-N-[(1S)-2,2,2-trifluoro-1-methylethyl][1,2,4]triazolo[1,5-a]pyrimidin-7-amine], the 50% inhibitory concentration (IC50) (as a rule, the concentration that inhibits the measured activity by half) with COLO 205 cells was found to be 41 nM. Further, the “tumor growth inhibition (activity call)” value in test [1] is given as “active”.
With `CNCCCOc1cc(F)c(-c2c(Cl)nc3ncnn3c2NCC(F)(F)F)c(F)c1` [Example 3, 5-Chloro-6-{2,6-difluoro-4-[3-(methylamino)propoxy]phenyl}-N-(2,2,2-trifluoroethyl)[1,2,4]triazolo[1,5-a]pyrimidin-7-amine], the IC50 with COLO 205 cells (Homo sapiens, COLO 205, 72 h) is 25 nM. Further, the “A340 Compound/A340 Control” value in the test with MAP-rich tubulin amounted to 6.7.
As to `CN(C)CCCOc1cc(F)c(-c2c(Cl)nc3ncnn3c2NCC(F)(F)F)c(F)c1` [Example 4, 5-Chloro-6-{4-[3-(dimethylamino)propoxy]-2,6-difluorophenyl}-N-(2,2,2-trifluoroethyl)[1,2,4]triazolo[1,5-a]pyrimidin-7-amine], in test [2], the “tumor growth inhibition (activity call)” value is “inhibited the growth”.
`C[C@H](Nc1c(-c2c(F)cc(OCCCN3CCN(C)CC3)cc2F)c(Cl)nc2ncnn12)C(F)(F)F` [Example 6, 5-Chloro-6-{2,6-difluoro-4-[3-(4-methylpiperazin-1-yl)propoxy]phenyl}-N-[(1S)-2,2,2-trifluoro-1-methylethyl][1,2,4]triazolo[1,5-a]pyrimidin-7-amine]: the IC50 with COLO 205 cells (Homo sapiens, COLO 205, 72 h) is 155 nM. Also, the “A340 Compound/A340 Control” value in the test on MAP-rich tubulin turned out to be 6.7.
For `CCNCCCOc1cc(F)c(-c2c(Cl)nc3ncnn3c2N[C@@H](C)C(F)(F)F)c(F)c1` [Example 7, 5-Chloro-6-{4-[3-(ethylamino)propoxy]-2,6-difluorophenyl}-N-[(1S)-2,2,2-trifluoro-1-methylethyl][1,2,4]triazolo[1,5-a]pyrimidin-7-amine] the same measures were 29 nM and 6.4.
Compound `CCN(C)CCCOc1cc(F)c(-c2c(Cl)nc3ncnn3c2N[C@@H](C)C(F)(F)F)c(F)c1` [Example 8, 5-Chloro-6-(4-{3-[ethyl(methyl)amino]propoxy}-2,6-difluorophenyl)-N-[(1S)-2,2,2-trifluoro-1-methylethyl][1,2,4]triazolo[1,5-a]pyrimidin-7-amine] returned an IC50 in the test on COLO 205 cells (Homo sapiens, COLO 205, 72 h) of 48 nM. The “A340 Compound/A340 Control” value in the test with MAP-rich tubulin is 6.2.
In the test with COLO 205 cells (Homo sapiens, COLO 205, 72 h), `C[C@H](Nc1c(-c2c(F)cc(OCCCN3CCCCC3)cc2F)c(Cl)nc2ncnn12)C(F)(F)F` [Example 10, 5-Chloro-6-[2,6-difluoro-4-(3-piperidin-1-ylpropoxy)phenyl]-N-[(1S)-2,2,2-trifluoro-1-methylethyl][1,2,4]triazolo[1,5-a]pyrimidin-7-amine] displayed an IC50 of 113 nM. Moreover, in the test on MAP-rich tubulin, the “A340 Compound/A340 Control” value turned out to be 6.3.
The compound `C[C@H](Nc1c(-c2c(F)cc(OCCO)cc2F)c(Cl)nc2ncnn12)C(F)(F)F` [Example 19, 2-[4-(5-Chloro-7-{[(1S)-2,2,2-trifluoro-1-methylethyl]amino}[1,2,4]triazolo[1,5-a]pyrimidin-6-yl)-3,5-difluorophenoxy]ethanol] yielded a half-inhibitory concentration (IC50) with COLO 205 cells (Homo sapiens, COLO 205, 72 h) of 422 nM.
Still for that read-out and setting: in the case of `C[C@H](Nc1c(-c2c(F)cc(OCCCCO)cc2F)c(Cl)nc2ncnn12)C(F)(F)F` [Example 21, 4-[4-(5-Chloro-7-{[(1S)-2,2,2-trifluoro-1-methylethyl]amino}[1,2,4]triazolo[1,5-a]pyrimidin-6-yl)-3,5-difluorophenoxy]butan-1-ol] it was 151 nM.
On the same count and under the same terms, the value for `C[C@H](Nc1c(-c2c(F)ccc(OCCN(C)C)c2F)c(Cl)nc2ncnn12)C(F)(F)F` [Example 27, 5-Chloro-6-{3-[2-(dimethylamino)ethoxy]-2,6-difluorophenyl}-N-[(1S)-2,2,2-trifluoro-1-methylethyl][1,2,4]triazolo[1,5-a]pyrimidin-7-amine] was 1570 nM; that for `C[C@H](Nc1c(-c2c(F)ccc(OCCCN(C)C)c2F)c(Cl)nc2ncnn12)C(F)(F)F` [Example 28, 5-Chloro-6-{3-[3-(dimethylamino)propoxy]-2,6-difluorophenyl}-N-[(1S)-2,2,2-trifluoro-1-methylethyl][1,2,4]triazolo[1,5-a]pyrimidin-7-amine] was 785 nM.
On the same count and under the same terms, in the case of `C[C@H](Nc1c(-c2c(F)ccc(OCCCCN(C)C)c2F)c(Cl)nc2ncnn12)C(F)(F)F` [Example 29, 5-Chloro-6-{3-[4-(dimethylamino)butoxy]-2,6-difluorophenyl}-N-[(1S)-2,2,2-trifluoro-1-methylethyl][1,2,4]triazolo[1,5-a]pyrimidin-7-amine] it was 433 nM.
On to `CN(C)CCCOc1cc(F)c(-c2c(Cl)nc3ncnn3c2C2CCCCCC2)c(F)c1` [Example 31, 3-[4-(5-Chloro-7-cycloheptyl[1,2,4]triazolo[1,5-a]pyrimidin-6-yl)-3,5-difluorophenoxy]-N,N-dimethylpropan-1-amine], for which the IC50 with COLO 205 cells (Homo sapiens, COLO 205, 72 h) is 19 nM. Against the preceding compound, the IC50 is about 23-fold lower.
For `CNCCCOc1cc(F)c(-c2c(Cl)nc3ncnn3c2N[C@H](C)C(F)(F)F)c(F)c1` [Example 33, 5-Chloro-6-{2,6-difluoro-4-[3-(methylamino)propoxy]phenyl}-N-[(1R)-2,2,2-trifluoro-1-methylethyl][1,2,4]triazolo[1,5-a]pyrimidin-7-amine], it took 126 nM to reach half-maximal inhibition in the test on COLO 205 cells (Homo sapiens, COLO 205, 72 h) (IC50).
